{"source": "patent US20210300939A1", "about": "“Single Molecule Compounds Providing Multi-Target Inhibition of BTK and Other Proteins and Methods of Use Thereof” (SignalRx Pharmaceuticals, Inc., priority 2018, published 2021)", "key": {"JeKo-1 cells [1]": {"test_system": "JeKo-1 cells", "experiment": "Cell viability (Celltiter-Glo), JeKo-1", "format": "cell-based", "conditions": "Homo sapiens, 48 hours", "method": "(§1) The results of this experiment are shown in FIGS. 1A-1C, and in Table 7 below. Human mantle cell lymphoma cell lines were grown in 96 well plates with 5000 cells per well in RPMI 1640 media supplemented with 10% fetal bovine serum. Cells were treated for 48 hours with a concentration range of each compound from 50 nM to 50 uM. Cell viability a measure of viable cell numbers was determined using a Celltiter-Glo^R reagent for each concentration in order to construct an IC50 curve for each compound in each cell line."}, "Mino cells [2]": {"test_system": "Mino cells", "experiment": "Cell viability (Celltiter-Glo), Mino", "format": "cell-based", "conditions": "Homo sapiens, 48 hours", "method": "as §1"}, "Granta519 cells": {"test_system": "Granta519 cells", "experiment": "Cell viability (Celltiter-Glo), Granta519", "format": "cell-based", "conditions": "Homo sapiens, Granta-519, 48 hours", "method": "as §1"}, "JeKo-1 cells [3]": {"test_system": "JeKo-1 cells", "experiment": "Percentage cells in apoptosis, JeKo-1", "format": "cell-based, human", "from_the_text": "(§2) Additionally apoptosis data was obtained in both JeKo and Mino cells for compound 7."}, "Mino cells [4]": {"test_system": "Mino cells", "experiment": "Percentage cells in apoptosis, Mino", "format": "cell-based, human", "conditions": "24-hour", "from_the_text": "as §2"}, "[5]": {"biological_target": "T1, BRD4-1 (binding domain 1 of BRD4) (Homo sapiens, UniProt O60885)", "T1 construct": "purchased Reaction Biology Corp., Malvern, Pa; (contract assay)", "experiment": "BRD4 binding domain 1 inhibition (Reaction Biology Corp.)", "conditions": "10-point curve; read-out: Target IC50 BRD4-1", "method": "(§3) The BTK, PI3K, and/or bromodomain inhibitory activity of a compound of the invention can be determined by methods known to the skilled artisan, or by procuring relevant analysis by a commercial vendor offering such services. […] In vivo, PI3K inhibition can be determined from target tissue biopsies by standard tissue processing in which cells are disrupted and Western Blot analysis is performed to determine the presence or absence of pAKT (substrate of PI3K) relative to a control sample. PI3K inhibition assays and BTK inhibition assays are known in the art and can be procured commercially through vendors such as Reaction Biology (Malvern, Pa.). The activity of a compound of the invention as an inhibitor of a bromodomain-containing protein, such as a BET protein, including BRD2, BRD3, BRD4, and/or BRDT, or an isoform or mutant thereof, may be determined in vitro, in vivo, or in a cell line. In vitro assays include assays that determine inhibition of bromodomain-containing proteins. Alternatively, inhibitor binding may be determined by running a competition experiment where a provided compound is incubated with a bromodomain-containing protein, such as a BET protein bound to known ligands, labeled or unlabeled. In vitro bromodomain inhibition assays can be performed using Alpha Screen Technology (Perkin Elmer Life and Analytical Sciences, Shelton, Conn.). In vivo bromodomain inhibition can be determined indirectly by evaluating the amount of a protein whose gene transcription is influenced or controlled by the bromodomain protein, for example, MYCN protein transcription is controlled by BRD4 (J. E. Delmore et al., Cell 2011, 146, 904-917; A. Puissant, Cancer Discov. 2013, 3, 308-323).\n(§4) Compounds of the invention were analyzed for their ability to inhibit target proteins in vitro. PI3K alpha, gamma, and delta inhibition activity was determined by Thermo Fisher Scientific-Biosciences Life Sciences Solutions, Madison, Wis. The bromodomain protein inhibition (binding domain 1 and 2 of BRD4) was determined at Reaction Biology Corp., Malvern, Pa. BTK inhibition was performed by Reaction Biology Corp., Malvern, Pa.\n(§5) Additional information regarding the testing procedures is available at each company's website on the internet. The IC50 data was calculated from a 10-point curve by the vendor and is compiled in ranges in the Table 6 below."}, "PI3K α": {"biological_target": "T2, PI3K α (Homo sapiens, UniProt P42336)", "T2 construct": "purchased Thermo Fisher Scientific-Biosciences Life Sciences Solutions, Madison, Wis; (contract assay)", "experiment": "PI3K alpha inhibition (Thermo Fisher Scientific)", "format": "biochemical", "conditions": "10-point curve; read-out: Target IC50 PI3K α", "method": "as §3, §4, §5"}, "PI3K δ": {"biological_target": "T3, PI3K δ (Homo sapiens, UniProt O00329)", "T3 construct": "purchased Thermo Fisher Scientific-Biosciences Life Sciences Solutions, Madison, Wis; (contract assay)", "experiment": "PI3K delta inhibition (Thermo Fisher Scientific)", "format": "biochemical", "conditions": "10-point curve; read-out: Target IC50 PI3K δ", "method": "as §3, §4, §5"}, "BTK (WT)": {"biological_target": "T4, BTK (WT) (Homo sapiens, UniProt Q06187)", "T4 construct": "purchased Reaction Biology Corp., Malvern, Pa; (contract assay)", "experiment": "native BTK inhibition (Reaction Biology Corp.)", "format": "biochemical", "conditions": "10-point curve; read-out: Target IC50 BTK (WT)", "method": "as §4, §5"}, "BTK (C481S)": {"biological_target": "T5, BTK (C481S) (Homo sapiens, UniProt Q06187, C481S)", "T5 construct": "purchased Reaction Biology Corp., Malvern, Pa; (contract assay)", "T5 sequence (Q06187 whole entry C481S)": "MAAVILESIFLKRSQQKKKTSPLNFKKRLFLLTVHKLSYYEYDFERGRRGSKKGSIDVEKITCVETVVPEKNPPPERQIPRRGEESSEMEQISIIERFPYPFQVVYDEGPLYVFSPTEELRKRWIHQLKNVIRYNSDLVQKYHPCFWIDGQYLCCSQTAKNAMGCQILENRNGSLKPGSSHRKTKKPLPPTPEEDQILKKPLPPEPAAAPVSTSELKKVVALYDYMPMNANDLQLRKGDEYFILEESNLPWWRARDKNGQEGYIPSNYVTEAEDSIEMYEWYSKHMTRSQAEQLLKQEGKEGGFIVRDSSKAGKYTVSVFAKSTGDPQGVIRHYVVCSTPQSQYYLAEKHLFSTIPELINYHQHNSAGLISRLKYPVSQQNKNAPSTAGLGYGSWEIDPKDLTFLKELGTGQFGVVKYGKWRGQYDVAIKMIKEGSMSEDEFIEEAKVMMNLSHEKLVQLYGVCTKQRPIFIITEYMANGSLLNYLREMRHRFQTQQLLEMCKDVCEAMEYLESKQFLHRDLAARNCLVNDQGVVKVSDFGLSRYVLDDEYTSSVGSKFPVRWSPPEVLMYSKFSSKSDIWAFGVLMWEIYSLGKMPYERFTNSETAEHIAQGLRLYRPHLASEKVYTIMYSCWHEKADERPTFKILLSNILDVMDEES", "experiment": "BTK cysteine mutant C481S inhibition (Reaction Biology Corp.)", "format": "biochemical", "conditions": "ratio of the BTK IC50 values, C481S over wild-type", "method": "as §4, §5"}, "[6]": {"test_system": "Human mantle cell lymphoma cell lines", "experiment": "Cell viability, mantle cell lymphoma cell lines (overall conclusion)", "format": "cell-based", "conditions": "in vitro, 48 hours", "method": "as §1"}, "[7]": {"test_system": "pBTK(Y223) in JeKo and Mino cells", "experiment": "Western blot, phosphorylation of BTK at Tyr223 in anti-IgM stimulated cells", "format": "cell-based, human"}, "[8]": {"test_system": "pAKT(S473) in JeKo and Mino cells", "experiment": "Western blot, phosphorylation of AKT at Ser 473 in anti-IgM stimulated cells", "format": "cell-based, human", "method": "Phosphorylation of BTK at Tyr223 and AKT at Ser 473 were determined by Western blot analysis. The results are shown in FIGS. 2A-2B (JeKo cells) and FIGS. 2C-2D (Mino cells). Blots were reprobed for total BTK, AKT, and β-actin."}, "pBTK in JeKo cells": {"test_system": "pBTK in JeKo cells", "experiment": "Washout Western blot for pBTK in IgM-stimulated JeKo cells", "format": "cell-based, human", "conditions": "5 μM or 1 μM for 3 hours, washed with PBS three times, 4 hours recovery"}, "pAKT in JeKo cells": {"test_system": "pAKT in JeKo cells", "experiment": "Washout Western blot for pAKT in IgM-stimulated JeKo cells", "format": "cell-based, human", "conditions": "5 μM or 1 μM for 3 hours, washed with PBS three times, 4 hours recovery"}, "breast cancer stem cells": {"test_system": "breast cancer stem cells", "conditions": "women with breast tumors with high levels of HER2 protein; decreased from 11%; cited from earlier work"}, "[9]": {"conditions": "JeKo cells stimulated with F(ab′) and anti-human IgM, various concentrations, FIG. 3B"}, "[10]": {"conditions": "anti-IgM stimulated JeKo and Mino cells, FIGS. 2A-2D"}}}
{"smiles": "C=CC(=O)N1CCC[C@@H](n2nc(-c3ccc(Oc4ccccc4)cc3)c3c(N)ncnc32)C1", "note": "[Ibrutinib]", "values": [{"measurement": "IC50", "setting": "JeKo-1 cells [1]", "result": "> 50000", "unit": "nM"}, {"measurement": "IC50", "setting": "Mino cells [2]", "result": "1000 to 10000", "unit": "nM"}, {"measurement": "IC50", "setting": "Granta519 cells", "result": "10000 to 30000", "unit": "nM"}, {"measurement": "Percentage cells in apoptosis", "setting": "JeKo-1 cells [3]; JeKo-1, 24-hour, Early", "result": "+ (less than 5%)"}, {"measurement": "Percentage cells in apoptosis", "setting": "JeKo-1 cells [3]; JeKo-1, 24-hour, Late", "result": "+ (less than 5%)"}, {"measurement": "Percentage cells in apoptosis", "setting": "JeKo-1 cells [3]; JeKo-1, 24-hour, Total", "result": "+ (less than 5%)"}, {"measurement": "Percentage cells in apoptosis", "setting": "JeKo-1 cells [3]; JeKo-1, 48-hour, Early", "result": "+ (less than 5%)"}, {"measurement": "Percentage cells in apoptosis", "setting": "JeKo-1 cells [3]; JeKo-1, 48-hour, Late", "result": "+ (less than 5%)"}, {"measurement": "Percentage cells in apoptosis", "setting": "JeKo-1 cells [3]; JeKo-1, 48-hour, Total", "result": "++ (between 5% and 10%)"}, {"measurement": "Percentage cells in apoptosis", "setting": "Mino cells [4]; Early", "result": "++ (between 5% and 10%)"}, {"measurement": "Percentage cells in apoptosis", "setting": "Mino cells [4]; Late", "result": "+ (less than 5%)"}, {"measurement": "Percentage cells in apoptosis", "setting": "Mino cells [4]; Total", "result": "+++ (between 10% and 30%)"}]}
{"smiles": "C=CC(=O)Nc1cccc(-c2csc3c(=O)cc(N4CCOCC4)oc23)c1", "note": "[Compound 1, 1-[m-(5-Morpholino-7-oxo-4-oxa-1-thia-3-indenyl)phenylamino]-2-propen-1-one]", "values": [{"measurement": "IC50", "setting": "[5]", "result": "< 1000", "unit": "nM"}, {"measurement": "IC50", "setting": "PI3K α", "result": "< 1000", "unit": "nM"}, {"measurement": "IC50", "setting": "PI3K δ", "result": "< 1000", "unit": "nM"}, {"measurement": "IC50", "setting": "BTK (WT)", "result": "< 1000", "unit": "nM"}, {"measurement": "Ratio C481S/WT", "setting": "BTK (C481S)", "result": ">81"}, {"measurement": "IC50", "setting": "JeKo-1 cells [1]", "result": "1000 to 10000", "unit": "nM"}, {"measurement": "IC50", "setting": "Mino cells [2]", "result": "< 1000", "unit": "nM"}, {"measurement": "IC50", "setting": "Granta519 cells", "result": "1000 to 10000", "unit": "nM"}, {"measurement": "Potency in reducing mantle cell lymphoma viability as compared to Ibrutinib", "setting": "[6]", "result": "markedly more potent"}, {"measurement": "Suppression of pBTK(Y223)", "setting": "[7]; [9]", "result": "suppressed"}, {"measurement": "Suppression of pBTK (Tyr223)", "setting": "[7]; [10]", "result": "block the catalytic activity"}, {"measurement": "Suppression of pAKT", "setting": "[8]; [9]", "result": "suppressed"}, {"measurement": "Suppression of pAKT (Ser 473)", "setting": "[8]; [10]", "result": "block the catalytic activity"}, {"measurement": "pBTK inhibition after washing", "setting": "pBTK in JeKo cells", "result": "not diminished by washing"}, {"measurement": "pAKT after washing", "setting": "pAKT in JeKo cells", "result": "restored after washing"}]}
{"smiles": "CS(=O)(=O)CCNCc1ccc(-c2ccc3ncnc(Nc4ccc(OCc5cccc(F)c5)c(Cl)c4)c3c2)o1", "note": "[Lapatinib]", "values": [{"measurement": "Breast cancer stem cells in biopsies", "setting": "breast cancer stem cells", "result": "5 % of cells"}]}
